US5989198A, “Use of capillary electrophoresis to determine glomerular filtration rate using iothalamate” (Mayo Foundation for Medical Education and Research, priority 1997, dated 1999)
Where two headings read alike, the source gives them in different places.

Columns and labels:
[1] = urine diluted with 5 mM borate; cited from earlier work
[2] = cited from earlier work
[3] = GFR by capillary electrophoresis of non-isotopic (cold) iothalamate meglumine, timed urine and average of 2 plasma samples after subcutaneous injection; type: in vivo, human; settings: for mean GFR: capillary electrophoresis
Protocol: Prior to the test, patients were given 3 drops of a saturated solution of potassium iodide in 20 mis of water to prevent thyroid uptake of the small amount of free ^125 I-iothalamate and to protect patients from radiation exposure to the thyroid. They were also given a single subcutaneous injection of 0.5 mls of iothalamate meglumine (Conray®) (300 mg) diluted 1:1 with distilled water. Patients who professed an allergy to iodine were not included in this study, nor were patients who had been given an angiographic dye in the previous 24 hours.
On the day of the appointment, the patient ate nothing for 4 hours preceding the test (diabetics 2 hours) and drank 4 glasses of water in the hour preceding the test. They were also instructed not to void within 45 minutes of their appointment time. Patients were given oral hydration of 200 mls/per hour throughout the test.
Prior to injection, urine (U0) and blood plasma (P0) samples were obtained to assess for drug interferences. After subcutaneous injection of the two different GFR markers, a 45-minute equilibration period allowed blood levels to peak and become stable or fall as previously described for 125I subcutaneous iothalamate clearances by N. T. Ott et al., Mayo Clin. Proc., 50, 664 (1975), for ^125 I-iothalamate. This sampling method was adapted from studies reported by Israelit et al. for ^125 I-iothalamate, in Kid. […] After the 45 minute equilibration period, 7 ml of blood (P1) and a urine sample (UE) were collected and time (T0) was recorded. […] Bladder emptying was assessed by monitoring with a Diagnostic Ultrasound bladder scanner (Model No. 2500). […]
The patient was moved to a waiting room and returned to the laboratory after 45 to 60 minutes when the urge to void became apparent. Second blood (P2) and urine (U1) samples were collected, urine volume was recorded, and bladder emptying monitored. Adequacy of the test was confirmed if the bladder was empty (<10 ml or <10% of voided volume on scanner readout), and a minimum of 100 mls of urine was voided during the test. The timed urine (U1) and bloods (P1 and P2) were analyzed by CE. […]

Row | SMILES | sample stability, refrigerated [1] | GFR - Range of Normal ([2]; AGE 18-22) [ml/min/1.73 m^2] | GFR - Range of Normal ([2]; AGE 23-27) [ml/min/1.73 m^2] | GFR - Range of Normal ([2]; AGE 28-32) [ml/min/1.73 m^2] | GFR - Range of Normal ([2]; AGE 33-37) [ml/min/1.73 m^2] | GFR - Range of Normal ([2]; AGE 38-42) [ml/min/1.73 m^2] | GFR - Range of Normal ([2]; AGE 43-47) [ml/min/1.73 m^2] | GFR - Range of Normal ([2]; AGE 48-52) [ml/min/1.73 m^2] | GFR - Range of Normal ([2]; AGE 53-57) [ml/min/1.73 m^2] | GFR - Range of Normal ([2]; AGE 58-62) [ml/min/1.73 m^2] | GFR - Range of Normal ([2]; AGE >62) [ml/min/1.73 m^2] | mean GFR ([3]; initial patient group, before vortexing of ultrafiltrate) [mls/min/1.73 M^2] | range of GFR's over which CE and isotope methods correlated ([3]; initial patients (one hundred), s.c. injection) | mean GFR ([3]; second group of 31 patients, ultrafiltrate vortexed) [mls/min]
1 | CNC(=O)c1c(I)c(NC(C)=O)c(I)c(C(=O)O)c1I [Iothalamate] | at least 2 weeks | > 90 | > 88 | > 86 | > 84 | > 82 | > 80 | > 78 | > 75 | > 73 | > 70 | – | – | –
2 | CNC(=O)c1c(I)c(NC(C)=O)c(I)c(C(=O)O)c1I [iothalamate meglumine, 1-deoxy-1-(methylamino)-D-glucitol-5-acetamido-2,4,6,-triiodo-N-methylisophthalamate] | – | – | – | – | – | – | – | – | – | – | – | 58 | 9-103 mls/min/1.73 M^2 | 62
